In patent US11261152B2, “Inhibitors of the N-terminal domain of the androgen receptor” (The Regents of the University of California, priority 2017, dated 2022):

Legend:
[1] = test system: AR positive PCa cells (LNCaP, LNCaP-AR, CWR22, 22Rv1, LAPC4); assay: MTT / CellTiter GLO cell viability, AR positive prostate cancer cells; conditions: for MTT AR-Pos: Table 3 grade HIGH/MED/LOW, grades not defined
Method: (§2) The results are means of quadruplicate expts±s.d. Top panel: CellTiter GLO luminescent bioassay (arbitrary units on vertical axis). Bottom panel: classical MTT assay ([blue/yellow]=[viable/non-viable]).
(§3) Experiments were performed in quadruplicate; results are means+/−s.d.
Results were normalized to that of vehicle control. Experiments were performed in quadruplicate; results are means+/−s.d.
Next, the effects of the compounds on growth of prostate cancer cell lines in vitro were evaluated.

[2] = test system: AR transcriptional activity (MMTV reporter); assay: MMTV reporter assay; type: cell-based; conditions: Table 3 grade HIGH/MED/LOW, grades not defined
[3] = test system: AR-null PCa cells (DU145, PC3); assay: MTT / CellTiter GLO cell viability, AR-null prostate cancer cells; conditions: Table 3 grade HIGH/MED/LOW, grades not defined
Method: as §2, §3
AR null PC3 cells were exposed to the indicated compounds for 6 days; cell viability was measured by MTT assay. Results were normalized to that of vehicle control. Experiments were performed in quadruplicate; results are means+/−s.d.
For each compound and concentration in the figure, the bars represent relative cell viability of 22Rv1, LAPC4, and DU145, from left to right.
For each compound and concentration in the figure, the bars represent relative cell viability of CWR22 and PC3, from left to right.

CREB TAD = assay: CREB-TAD fused to GAL4 DNA-binding domain reporter assay; type: cell-based; conditions: Table 3 grade HIGH/MED/LOW, grades not defined
From the text: (§1) The inhibitory activity of JN018 was further evaluated in experiments in which the AR transactivation domain (TAD) or the c-Jun or CREB TAD was fused to the heterologous GAL4 DNA-binding domain and thereby drive reporter gene expression governed by the GAL4 response element (FIG. 1).

c-Jun TAD = assay: JUN-TAD fused to GAL4 DNA-binding domain reporter assay; type: cell-based; conditions: Table 3 grade HIGH/MED/LOW, grades not defined
From the text: as §1

[4] = test system: glucocorticoid response element (GRE) / glucocorticoid receptor; assay: GRE reporter assay; type: cell-based; conditions: Table 3 grade HIGH/MED/LOW, grades not defined
Method: FIG. 11B. Effects of JN series compounds in reporter assays for glucocorticoid response element. Experiments were performed in triplicate and results are means+/−s.d.

[5] = target: T1, AR transactivation domain (TAD) (Homo sapiens, UniProt P10275); assay: AR-TAD fused to GAL4 DNA-binding domain reporter assay; type: cell-based; conditions: Table 3 grade HIGH/MED/LOW, grades not defined
T1 construct: expressed in transfected cells
T1 sequence (P10275 1-559 limits assumed): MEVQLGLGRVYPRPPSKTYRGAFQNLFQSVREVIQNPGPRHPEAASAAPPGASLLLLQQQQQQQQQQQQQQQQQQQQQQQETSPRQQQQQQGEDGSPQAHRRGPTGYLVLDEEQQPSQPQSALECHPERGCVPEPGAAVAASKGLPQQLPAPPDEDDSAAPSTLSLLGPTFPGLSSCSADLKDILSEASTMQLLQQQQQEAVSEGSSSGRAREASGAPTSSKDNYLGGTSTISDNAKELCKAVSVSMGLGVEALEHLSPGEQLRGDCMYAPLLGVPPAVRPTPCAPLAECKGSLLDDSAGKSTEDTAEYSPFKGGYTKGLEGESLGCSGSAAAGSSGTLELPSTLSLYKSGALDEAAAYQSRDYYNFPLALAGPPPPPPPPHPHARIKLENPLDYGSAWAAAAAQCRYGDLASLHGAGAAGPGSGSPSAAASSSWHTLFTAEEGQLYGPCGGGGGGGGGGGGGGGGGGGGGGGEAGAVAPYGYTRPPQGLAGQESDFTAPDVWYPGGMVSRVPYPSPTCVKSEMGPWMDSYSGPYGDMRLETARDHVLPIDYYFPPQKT
From the text: as §1

[6] = test system: androgen response element (ARE); assay: ARE reporter assay (tandem copies of the androgen response element); type: cell-based; conditions: for ARE: Table 3 grade HIGH/MED/LOW, grades not defined
Method: FIG. 11A. Effects of JN series compounds in reporter assays for androgen response element. Experiments were performed in triplicate and results are means+/−s.d.

SMILES | MTT AR-Pos [1] | MMTV [2] | MTT AR-Neg [3] | ARE [6] | other results
C=CC(O)/C(=C\c1ccc(Cl)cc1)c1ccccc1 (stereo not drawn) [JN003, (Z)-1-(4-Chlorophenyl)-2-phenylpenta-1,4-dien-3-ol] | LOW | HIGH | LOW |  | CREB-TAD (CREB TAD): LOW; JUN-TAD (c-Jun TAD): LOW; GRE [4]: LOW; AR-TAD [5]: HIGH
CN(C/C(=C\c1ccc(Cl)cc1)C(=O)c1ccccc1)Cc1ccccc1 [JN017, (E)-2-((Benzyl(methyl)amino)methyl)-3-(4-chlorophenyl)-1-phenylprop-2-en-1-one] | HIGH | LOW | MED | LOW | CREB-TAD (CREB TAD): LOW; JUN-TAD (c-Jun TAD): LOW; AR-TAD [5]: HIGH
C=C(CN(C)Cc1ccccc1)C(=O)/C(=C\c1ccc(Cl)cc1)c1ccccc1.Cl [JN019] | LOW |  |  |  | 
C=C(CN(C)Cc1ccccc1)C(=O)/C(=C\c1ccc(Br)cc1)c1ccccc1.Cl [JN020] | LOW | LOW |  |  | 
C=C(CN(C)Cc1ccccc1)C(=O)/C(=C/c1ccc(Br)cc1)c1ccccc1.Cl [JN021] | LOW | LOW | MED |  | 
CN(C/C(=C\c1ccc(Br)cc1)C(=O)c1ccccc1)Cc1ccccc1 [JN022] | HIGH | HIGH | HIGH | LOW | CREB-TAD (CREB TAD): LOW; JUN-TAD (c-Jun TAD): HIGH; AR-TAD [5]: HIGH
C=C(CN(C)C)C(=O)/C(=C\c1ccc(Cl)cc1)c1ccccc1.Cl [JN023] | LOW | LOW | LOW |  | 
CN(C)C/C(=C\c1ccc(Cl)cc1)C(=O)c1ccccc1 [JN024] | HIGH | HIGH | MED | HIGH | CREB-TAD (CREB TAD): HIGH; JUN-TAD (c-Jun TAD): HIGH; AR-TAD [5]: HIGH
C=C(C)C(=O)/C(=C\c1ccc(Cl)cc1)c1ccccc1 [JN025] | LOW | HIGH | MED | HIGH | 
C/C(=C\c1ccc(Cl)cc1)C(=O)c1ccccc1 [JN026, (E)-3-(4-Chlorophenyl)-2-methyl-1-phenylprop-2-en-1-one] |  | LOW |  | LOW | 
O=C(/C(=C/c1ccc(Cl)cc1)CN1CCCC1)c1ccccc1 [JN028] |  | HIGH |  | HIGH | 
O=C(/C(=C/c1ccc(Cl)cc1)CN1CCOCC1)c1ccccc1 [JN029] |  | HIGH |  | HIGH | 
CN(C/C(=C\c1ccc(F)cc1)C(=O)c1ccccc1)Cc1ccccc1 [JN030] |  | MED |  | MED | 
CN(C/C(=C\c1ccc(Cl)c(Cl)c1)C(=O)c1ccccc1)Cc1ccccc1 [JN031] |  | LOW |  | LOW | 
C=C(C)C(=O)/C(=C/c1ccc(Cl)cc1)c1ccccc1 [JN032] | HIGH | HIGH | LOW |  | 
C=C(C)C(O)/C(=C/c1ccc(Cl)cc1)c1ccccc1 (stereo not drawn) [JN033] | LOW | MED | LOW |  | 
C=C(C)C(O)/C(=C\c1ccc(Cl)cc1)c1ccccc1 (stereo not drawn) [JN034] | MED | MED | LOW |  | 
CC(C)N(C/C(=C\c1ccc(Cl)cc1)C(=O)c1ccccc1)C(C)C [JN036] | MED/HIGH | HIGH | LOW/MED |  | 
CN1CCN(C/C(=C\c2ccc(Cl)cc2)C(=O)c2ccccc2)CC1 [JN038] | HIGH | HIGH | MED |  | 
Cc1ccc(/C=C(\CN(C)Cc2ccccc2)C(=O)c2ccccc2)cc1 [JN043] | HIGH | HIGH | MED | HIGH | CREB-TAD (CREB TAD): MED; JUN-TAD (c-Jun TAD): LOW; GRE [4]: HIGH; AR-TAD [5]: HIGH
CN(C/C(=C\c1ccc(C(F)(F)F)cc1)C(=O)c1ccccc1)Cc1ccccc1 [JN044] | HIGH | MED | MED | HIGH | CREB-TAD (CREB TAD): MED; JUN-TAD (c-Jun TAD): LOW; GRE [4]: HIGH; AR-TAD [5]: HIGH

SMILES | MTT AR-Pos [1] | MMTV [2] | MTT AR-Neg [3] | ARE [6] | other results
CN(C/C(=C\c1cccc(Cl)c1)C(=O)c1ccccc1)Cc1ccccc1 [JN048] | HIGH | HIGH | LOW | HIGH | CREB-TAD (CREB TAD): LOW; JUN-TAD (c-Jun TAD): LOW; GRE [4]: LOW; AR-TAD [5]: HIGH
O=C(/C=C/c1ccc(F)cc1)C(=Cc1ccc(F)cc1)c1ccccc1 [JN051] | HIGH | HIGH | HIGH | HIGH | GRE [4]: HIGH
C=C(CN(C)Cc1ccccc1)C(=O)/C(=C/c1ccc(F)cc1)c1ccccc1.Cl [JN054] | LOW | MED |  |  | 
C=C(CN(C)Cc1ccccc1)C(=O)/C(=C\c1ccc(F)cc1)c1ccccc1.Cl [JN055] |  | MED |  | MED | GRE [4]: HIGH
C=C(CN(C)Cc1ccccc1)C(=O)/C(=C/c1ccc(Cl)c(Cl)c1)c1ccccc1.Cl [JN057] | MED | MED | MED |  | GRE [4]: HIGH
C=C(CN(C)Cc1ccccc1)C(=O)/C(=C/c1cccc(Cl)c1)c1ccccc1.Cl [JN060] | HIGH | HIGH | HIGH | HIGH | GRE [4]: HIGH
C=C(CN(C)Cc1ccccc1)C(=O)/C(=C/c1ccccc1)c1ccccc1.Cl [JN062] | HIGH | LOW | HIGH |  | 
C=C(CN(C)Cc1ccccc1)C(=O)/C(=C\c1ccc(C(F)(F)F)cc1)c1ccccc1.Cl [JN065] | MED | HIGH | LOW |  | 
C=C(CN(C)Cc1ccccc1)C(=O)/C(=C/c1ccc(Cl)cc1)c1ccc(Cl)cc1.Cl [JN074] | HIGH | HIGH | HIGH |  | 
C=C(CN(C)Cc1ccccc1)C(=O)/C(=C/c1ccc(Cl)cc1)c1cccc(Cl)c1.Cl [JN075] | HIGH | MED | HIGH |  | 
C=C(CN(C)Cc1ccccc1)C(=O)/C(=C/c1ccc(Cl)cc1)c1ccccc1Cl.Cl [JN076] | HIGH | HIGH | MED |  | 
C=C(CN1CCCCC1)C(=O)/C(=C/c1ccc(Cl)cc1)c1ccccc1.Cl [JN077] | LOW | HIGH | LOW |  | 
C=C(CN1CCCC1)C(=O)/C(=C/c1ccc(Cl)cc1)c1ccccc1.Cl [JN078] |  | LOW |  |  | 
C=C(CN1CCNCC1)C(=O)/C(=C/c1ccc(Cl)cc1)c1ccccc1.Cl [JN079] |  | LOW |  |  | 
C=C(CN(C)Cc1ccccc1)C(=O)/C(=C/c1ccc(Cl)cc1)c1ccc(N=[N+]=[N-])cc1.Cl [JN080] | LOW | HIGH | LOW |  | 
C=C(CN(C)Cc1ccccc1)C(=O)/C(=C\c1ccc(Cl)cc1)c1ccc(N=[N+]=[N-])cc1.Cl [JN081] |  | MED |  |  | 
C=C(CN(C)Cc1ccccc1)C(=O)/C(=C/c1ccc(Cl)c(F)c1)c1ccccc1.Cl [JN082] | LOW | LOW | LOW | LOW | 
C=C(CN(C)Cc1ccccc1)C(=O)/C(=C/c1ccc(Cl)cc1F)c1ccccc1.Cl [JN083] | MED | HIGH | MED | LOW | 
O=C(CC1CO1)/C(=C/c1ccc(Cl)cc1)c1ccccc1 (stereo not drawn) [JN097, (E)-4-(4-Chlorophenyl)-1-(oxiran-2-yl)-3-phenylbut-3-en-2-one] |  |  |  |  | reporter activity driven by the ARE ([6]; result in words): inhibited reporter activity; growth inhibitory / suppressive effects as compared to JN018 ([1]; result in words): enhanced growth inhibitory effects
C=C(C)C(=O)NC(=O)/C(=C/c1cccs1)c1ccccc1 [JN128] |  |  |  |  | growth of AR expressing prostate cancer cells ([1]; result in words): selective growth inhibitory effects
